Test results as given in ChEMBL document CHEMBL1137251, “Synthesis of rigid trichostatin A analogs as HDAC inhibitors” (Bioorg Med Chem Lett, 2006).
Active and inactive are the calls of the source. The calls are words filed in the database; no cut-off is given here.

How the values were obtained:
[1] = Antiproliferative activity against H661 cells; assay type: functional, cell-based; conditions: Homo sapiens, NCI-H661
[2] = system: HCT-116; assay: Antiproliferative activity against HCT116 cells; assay type: functional, cell-based; conditions: Homo sapiens
[3] = Antiproliferative activity against H1299 cells; assay type: functional, cell-based; conditions: Homo sapiens, NCI-H1299
[4] = target: Histone H4 (Homo sapiens) (UniProt P62805); assay: Acetylation of histone H4 at 2.5 uM by Western blot analysis
[5] = target: Histone H4 (Homo sapiens) (UniProt P62805); assay: Acetylation of histone H4 at 5 uM by Western blot analysis
[6] = target: Histone H4 (Homo sapiens) (UniProt P62805); assay: Acetylation of histone H4 at 0.3 uM by Western blot analysis

Row | Compound | IC50 [1] | further results
1 | CC(/C=C/C(=O)NO)=C\C1(C)Cc2ccccc2C1=O (centres undefined) | 1650 nM | –
2 | CC(/C=C/C(=O)Nc1ccccc1N)=C\C1(C)Cc2cc(N(C)C)ccc2C1=O (centres undefined) | 2500 nM | –
3 | CC(/C=C/C(=O)NO)=C\[C@@H](C)C(=O)c1ccc(N(C)C)cc1 [TRICHOSTATIN] | < 300 nM | IC50 [2]: 1.3 nM; IC50 [3]: 100 nM
4 | CC(/C=C/C(=O)NO)=C\C1(C)Cc2cc(F)ccc2C1=O (centres undefined) | 1500 nM | Activity [4]: Active
5 | CC(/C=C/C(=O)Nc1ccccc1N)=C\C1(C)Cc2ccccc2C1=O (centres undefined) | 3000 nM | –
6 | CC(/C=C/C(=O)Nc1ccccc1N)=C\C1(C)CCc2ccccc2C1=O (centres undefined) | 5000 nM | –
7 | CC(/C=C/C(=O)Nc1ccccc1N)=C\C1(C)Cc2cc(F)ccc2C1=O (centres undefined) | 7000 nM | –
8 | CC(/C=C/C(=O)NO)=C\C1(C)CCc2ccccc2C1=O (centres undefined) | 3000 nM | Activity [5]: Active
9 | C=C(/C=C/C(=O)Nc1ccccc1N)CC1(C)Cc2ccccc2C1=O (centres undefined) | > 10000 nM | –
10 | CC(/C=C/C(=O)NO)=C\C1(C)Cc2cc(N(C)C)ccc2C1=O (centres undefined) | – | Activity [6]: Active
